In PMC12365674, “Diverse metabolites with anti-psoriasis potential from different fermentations of the fungicolous fungus Xylarialongipes HFG1018” (IMA Fungus, 2025):
Entries after “also recorded” stand apart in the source; their conditions may differ. Read-outs that look alike come from different tables or passages of the source.

What was measured:
[1] = test system: ConA-induced T lymphocytes; test: Anti-proliferative activity against ConA-induced T lymphocytes (CCK-8); assay type: cell-based; conditions: Mus musculus, T-lymphocyte
Description: (§1) As previously described, the immunosuppressive activity, lymphocyte viability, and antiproliferative activity against HaCaT cells were evaluated using the CCK-8 method ([Zhao et al. 2023], [2024]).
(§2) In the immunosuppressive and lymphocyte viability, the primary tested concentration of all compounds was 20.0 μM, and dexamethasone (Dex) (c = 2.0 μM) was used as a positive control. In the antiproliferative activity against HaCaT cells, the primary tested concentration of all compounds was 40 μM, and the positive control was methotrexate (MTX) (c = 40.0 μM). When the inhibition rates are greater than 50%, the IC50 values of active compounds will be further tested and calculated. All experiments were performed in triplicate.

[2] = test system: LPS-induced B lymphocytes; test: Anti-proliferative activity against LPS-induced B lymphocytes (CCK-8); assay type: cell-based, mouse; conditions: for IC50: induced proliferation of B lymphocytes (LPS), CCK-8, read-out: B cells IC50
Description: as §1, §2

[3] = test system: lymphocytes; test: Lymphocyte viability (CCK-8); assay type: cell-based, mouse; conditions: c = 20 μM
Description: as §1, §2

[4] = test system: IFN-γ; test: Cytokine analysis by ELISA of induced T cells: IFN-γ; assay type: cell-based, mouse; conditions: ConA-induced T cells, 48 h; all sample groups; P < 0.0001 vs. model
Description: (§3) The mononuclear cell suspensions (2 × 10^5 cells/well) were cultured with ConA (5 μg/mL) in 96-well plates, and indicated concentrations of compounds 2, 15, and 32 were added simultaneously. After a 48-hour culture period, cytokines in the supernatants were quantified using mouse IFN-γ, IL-2, and IL-17A ELISA kits (Mabtech, Sweden), following the manufacturer’s protocol ([Jing et al. 2021]; [Zhao et al. 2024]).

[5] = test system: IL-2; test: Cytokine analysis by ELISA of induced T cells: IL-2; assay type: cell-based, mouse; conditions: 40 μM; ConA-induced T cells, 48 h; P < 0.01 vs. model
Description: as §3

[6] = test system: ConA-induced T lymphocytes; test: Anti-proliferative activity against ConA-induced T lymphocytes (CCK-8); assay type: cell-based; conditions: Mus musculus, T-lymphocyte, c = 40 μM, read-out: Inhibition rate (%) T
[7] = test system: LPS-induced B lymphocytes; test: Anti-proliferative activity against LPS-induced B lymphocytes (CCK-8); assay type: cell-based; conditions: Mus musculus, Lymphocyte, c = 40 μM, read-out: Inhibition rate (%) B
[8] = test system: lymphocytes; test: Lymphocyte viability (CCK-8); assay type: cell-based, mouse; conditions: c = 40 μM
[9] = Lymphocyte viability (CCK-8); assay type: cell-based, mouse; conditions: mouse, lymphocytes; lymphocyte viability; CCK-8
Description: as §1, §2

[10] = test system: HaCaT cells; test: Antiproliferative activity against HaCaT cells (CCK-8); assay type: cell-based; conditions: Homo sapiens, HaCaT, read-out: IC50 against the proliferation of HaCaT cells
Description: as §1, §2

[11] = test system: induced T cells (Con A 5 μg/mL); test: EdU proliferation assay, induced T cells; assay type: cell-based, mouse; conditions: c = 10 μM; relative to the model group
Description: (§4) EdU fluorescence labeling for cell proliferation of induced T/B lymphocytes (2 × 10^5 cells/well) and HaCaT cells (1 × 10^4 cells/well) of active compounds 10, 19, 23, 32, 38, and 41 (final concentration 10 or 20 μM) was performed as previously reported ([Biram and Shulman 2020]; [Zhao et al. 2024]). EdU (HF488) (the Click-iT™ EdU Flow Cytometry Assay Kit, APExBIO, USA) was added 24 h (final concentration 50 μM, T and B cells) and 4 h (final concentration 10 μM, HaCaT cells) before harvesting the cells. All procedures were performed according to the manufacturer’s instructions for the click reaction. EdU-positive cells and proliferating phase cells were analyzed with a fluorescence microscope.

[12] = test system: induced B cells (LPS 15 μg/mL); test: EdU proliferation assay, induced B cells; assay type: cell-based, mouse; conditions: c = 10 μM; relative to the model group
Description: as §4

[13] = test system: HaCaT cells; test: EdU proliferation assay, HaCaT cells; assay type: cell-based; conditions: c = 20 μM; compared to the control group
Description: as §4

[14] = test system: IL-17A; test: Cytokine analysis by ELISA of induced T cells: IL-17A; assay type: cell-based, mouse; conditions: 10 μM; ConA-induced T cells, 48 h; P < 0.01 vs. model
Description: as §3

[15] = test system: NF-κB p65 phosphorylation; test: Immunofluorescence of p-p65/p65 in HaCaT cells; assay type: cell-based; conditions: 27.0 μM, 36 h, P < 0.01 vs. Con
Description: The immunofluorescence protocol was performed using the reported method ([Zhao et al. 2024]). HaCaT cells (2.0 × 10^5 cells/well) were plated onto 6-well plates with glass coverslips and adhered overnight (12 h) before compound addition. After treatment with active compounds 10 (final concentration 31 μM) and 32 (final concentration 27 μM) for 36 h, the supernatant was removed, and the cells were washed twice with PBS, fixed with 4% paraformaldehyde for 15 min, and then washed with PBS three times. After blocking, incubated with NF-κB p65 (p65)/phosphorylated NF-κB p65 (p-p65) antibodies and secondary antibodies (Servicebio, China). Then, cells were counterstained with 4,6-[…]-2-phenylindole (DAPI) for 5 min. After the PBS washing, fluorescent seal liquid was added, and the plate was monitored under an imaging system (Pannoramic MIDI, 3Dhistech, Hungary). The nucleus is blue, and positive cells are green (p-p65) or red (p65). The immunofluorescence areas for each indicator were analyzed in ImageJ.

| SMILES | inhibition at 20 µM ([1]; c = 20 μM, ConA-induced T lymphocytes, read-out: Inhibition rate (%) T) [%] | inhibition at 20 µM ([2]; Mus musculus, Lymphocyte, c = 20 μM, LPS-induced B lymphocytes, read-out: Inhibition rate (%) B) [%] | Cell validity (%) [3] [%] | IFN-γ secretion [4] | IL-2 levels [5] | inhibition at 40 µM [6] [%] | inhibition at 40 µM [7] [%] | Cell validity (%) [8] [%] | IC50 ([1]; induced proliferation of T lymphocytes (ConA), CCK-8, read-out: T cells IC50) [µM] | IC50 ([2]; Mus musculus, Lymphocyte) [µM] | IC50 [2] [µM] | CC50 [9] [µM] | IC50 [10] [µM] | proliferation of induced T cells measured by EdU [11] | proliferation of induced B cells measured by EdU [12] | proliferation rates of HaCaT cells measured by EdU [13] | IL-17A levels [14] | NF-κB activation (ratio p-p65/p65) [15] |
| --- | --- | --- | --- | --- | --- | --- | --- | --- | --- | --- | --- | --- | --- | --- | --- | --- | --- | --- |
| C[C@]1(CCO)CC[C@H]2C(=CC[C@@H]3[C@]2(C)CCC[C@]3(C)C(=O)O)C1 [Compound 15, 16-hydroxyisopimar-7-en-19-oic acid] | 26.4 ± 6.3 | 23 ± 4.3 | 89.9 ± 7.5 | significant reduction; also recorded: significantly reduced | significantly reduced | 28.8 ± 5.8 | 29 ± 12.2 | 80.2 ± 1.8 | – | – | – | – | – | – | – | – | – | – |
| CO[C@@H]1C=C2[C@@H]3CC[C@H]([C@H](C)/C=C/[C@H](C)C(C)C)[C@@]3(C)CC[C@@H]2[C@@]2(C)CC[C@H](O)C[C@]12O [Compound 32, (3β,5α,6β,22E)-6-methoxyergosta-7,22-diene-3,5-diol] | – | – | – | significant reduction; also recorded: significantly reduced | – | – | – | – | 3.1 ± 0.2 | 8 to 20 | 6 ± 0.3 | > 20 | 27 ± 1.3 | significantly suppressed the proliferation | significantly suppressed the proliferation | significantly reduced | markedly lowered; also recorded: inhibiting IL-17A secretion | significantly attenuated NF-κB activation |
